Source: patent US20050234100A1, “Insulin resistance as new action of loperamide” (Yu Sheng Pharmaceutical Co., Ltd., priority 2004, published 2005)

Tests used:
C2C12 myoblasts = test: 2-DG glucose uptake in C2C12 myoblasts; assay type: cell-based, mouse
Procedure: (§1) The C2C12 cells, obtained from Culture Collection and Research Center (CCRC 60083) of the Food Industry Institute (Hsin-Chiu City, Taiwan) were plated at 5×10^4 cells/dish in 35-mm diameter culture dishes in Dulbecco's modified Eagle's medium (DMEM) (GIBCO BRL, Gaithersburg, Md.) supplemented with 10% fetal bovine serum (FBS) (GIBCO BRL) and 1% antibiotic solution (penicillin 10,000 U/ml, streptomycin 10 mg/ml, amphotericin B 25 μg/ml) and were grown to 80% confluence at 37° C. in humidified atmosphere containing 5% CO2. Myoblast differentiation was induced with DMEM supplemented with 5% horse serum, L-glutamine, and penicillin/streptomycin for 72 h. Differentiated myotubes were starved for 5 h in serum-free DMEM before treatment as described previously (Sheriff et al., 1992).
Glucose uptake was determined using 2-[^14C]-deoxy-D-glucose (2-DG) (New England Nuclear, Boston, Mass.). After 5 h of serum starvation, cells were incubated with or without pharmacological inhibitors at indicated concentrations for 30 min at 37° C. Then, the cells were incubated with loperamide at indicated concentrations at 37° C. for another 30 min under continuous shaking at 40 cycles/min. The cells were further incubated with 2-DG (1 μCi/ml) for 5 min at 37° C. Uptake was terminated by aspiration of the solution. Cells were then washed three times, and radioactivity associated with the cells was determined by cell lysis in 1 M NaOH, and the aliquots were neutralized to be estimated in scintillation counter. 2-DG uptake was expressed as the percentage of the basal 2-DG uptake that was taken as 100% from samples incubated with DMEM only. Nonspecific uptake was obtained by parallel determinations in the presence of 20 μmol/l cytochalasin B (Sigma, St. Louis, Mo., USA).

[1] = test system: Zucker-diabetic fatty rats; test: glucose challenge test in Zucker-diabetic fatty rats; assay type: in vivo; details: loperamide 2, 6, 18 μg/kg
Procedure: (§2) Animals were food-restricted and given only water to drink for overnight before the experiment. On the morning of examination, the basal blood sample (0.1 ml) drawn from the tail veins of these rats were regarded as 0 min samples. Then, each animal was immediately received an intraperitoneal injection of glucose at 1 g/kg body wt to induce the glucose tolerance test (IGTT). Blood samples from the tail vein were drawn at 5, 10, 20, 30, 60, 90, 120 min after the glucose feeding for measurement of plasma levels of glucose and insulin. Immediately after the completion of the IGTT, all animals received 2 ml of sterile saline subcutaneously to compensate for plasma loss. The obtained whole blood was thoroughly mixed with 10 IU heparin and centrifuged at 13,000×g to separate the plasma. Concentration of plasma glucose was measured by the glucose oxidase method via an analyzer (Quik-Lab, Ames, Miles Inc., Elkhart, Ind., USA) with samples run in duplicate. Enzyme-linked immunosorbent assay was carried out to measure plasma insulin using the commercial kit (Penisula Lab. Inc., Belmont, Calif., USA). Glucose-insulin index was calculated as the product of the glucose and insulin areas under the curve (AUC) as described previously (Kara et al., 2000). In order to evaluate whether loperamide could improve insulin resistance, four different doses of loperamide (2 ? 6 ? 12 ? 18 μg/kg) were injected into abdomen of each animal 30 minutes before the injection of glucose.
(§3) The blood sample was centrifuged to obtain plasma. Then, 10 μl of plasma was mixed with 1.0 ml of Glucose Kit Reagent (Biosystems S.A., Barcelona, Spain) at 37° C. for 10 minutes. The glucose concentration was measured in duplicate using Quik-lab analyzer (Ames, Miles Inc., Elkhart, Ind., USA) and expressed to the value of mg/dl. Results of plasma glucose lowering activity were calculated as percentage decrease of the initial value according to the formula: (Gi−Gt)/Gi×100% where Gi was the initial glucose concentration and Gt was the plasma glucose concentration after treatment of loperamide or same volume of vehicle.
(§4) Enzyme-linked immunosorbent assay (ELISA) was carried out to measure plasma insulin using the commercial kit (Penisula Lab. Inc., Belmont, Calif., USA). The measurement principle utilized the polyclonal antibodies in rabbit to directly identify the carboxyl-terminal of human insulin. Biotinylated peptide would compete with test subject the integration position with antibodies. After washing away the biotinylated peptides that was not integrated with antibodies, streptavidin-conjugated Horseradish Peroxidase (SA-HRP) was used to react with immobilized primary antibody/biotinylated peptide complex. Then, TMB (3,3′,5,5′-Tetramethyl Benzidine Dihydrochloride) is added to react with HRP and then yellow color was shown. The lightness or darkness of color was determined by the amount of biotinylated peptide integrated with antibodies. […] The standard curve was ploted according to the amounts of light absorption of standard subjects at 450 nm. Then through log/logit, the insulin concentration was calculated using MicroReader™ 4 Plus.
In order to know similar action of loperamide is also effective in genetic animal, the present study employed the Zucker-diabetic fatty rats to investigate IGTT in addition. Also, control group was treated with the same volume of vehicle (saline). The only difference is that glucose (0.5 g/kg) was given by intravenous injection at 30 minutes later of treatment.

[2] = test system: STZ-induced type-I diabetic rats; details: intravenous injection; cited from earlier work
[3] = test system: fructose-rich chow-fed Wistar rats (insulin resistance); test: intraperitoneal glucose tolerance test (IGTT) in fructose-induced insulin resistant rats; assay type: in vivo
Procedure: as §2
After 2 weeks on standard chow (Purina Mills, Inc.), half of the Wistar rats were randomly assigned to receive the fructose-rich chow (Teklad, Madison, Wis.) containing 60% fructose for 4 additional weeks to induce insulin resistance that was confirmed by the loss of tolbutamide action. The other rats still received standard chow during the 4-week period.
as §3, §4
Using glucose-insulin index (Kara et al., 2000) as indicator, effect of loperamide on insulin resistance was investigated in fructose-fed rats. The control group was treated with the same volume of saline, while test groups were injected loperamide at four doses (2 ? 6 ? 12 ? 18 μg/kg) into abdomens. […]

[4] = test system: TNF-α induced insulin resistant C2C12 myoblasts; test: insulin-stimulated glucose uptake in TNF-α induced insulin resistant C2C12 myoblasts; assay type: cell-based, mouse; details: for glucose uptake stimulated by insulin in TNF-α treated C2C12 myoblasts, antagonist alone: without loperamide
Procedure: as §1
Cultured C2C12 myoblasts (5×10^6) were incubated with loperamide at desired concentration or the same volume of vehicle in a cultivation condition oxygenated with a mixture of 95% O2 and 5% CO2 at 37° C. temperature for 3 days. Then, tumor necrosis factor-α (TNF-α) at concentration of 10 ng/ml was added. One hour later, cells were flushed down with 0.05% trypsin and put under centrifugal force at 13,000 rpm for 5 minutes, and clear liquid on top was then thrown away. Insulin ([…]) was used to simulate glucose uptake into cells using 2-[1-^14C]-Deoxy-D-Glucose (2-DG) (the final concentration of isotope was 0.25 μCi/ml) as indicator for 5-min incubation. The reaction was terminated in ice-bath. Then, C2C12 myoblasts were washed with buffer liquid three times. Finally, cells were lysed with 1 M NaOH and put into scintillation vial. The 2-DG specific uptake of cells was measured as indicated above.
The effect of loeramide on insulin resistance was further investigated in C2C12 myoblasts using TNF-α induced insulin resistance as described previously (Ruan et al., 2002; Mikael et al., 2002). Incubation with loperamide for 3 days at desired concentration, C2C12 myoblasts were treated with TNF-α (10 ng/ml) for one hour. Then, insulin was used to stimulate glucose uptake using 2-DG as indicator following the above method.

[5] = TNF-α treated C2C12 myoblasts, antagonist dose dependence

Q: With `CN(C)C(=O)C(CCN1CCC(O)(c2ccc(Cl)cc2)CC1)(c1ccccc1)c1ccccc1` [loperamide] as the compound, how does the “incubation time to maximal plateau of 2-DG uptake” value (C2C12 myoblasts; C2C12 myoblasts about 10^6 cells, 37° C.) read?
A: about 25 min

Q: What about the “2-DG uptake, concentration dependence” value (C2C12 myoblasts; loperamide 10 nM to 10 μM, 30 min incubation) of the same compound?
A: increase of 2-DG uptake in a concentration-dependent manner

Q: What about the “glucose uptake relative to control” value (C2C12 myoblasts; loperamide 10 μM (maximal concentration), N=8) of the same compound?
A: about 1.3 times of the control

Q: What about the 2-DG uptake (C2C12 myoblasts; loperamide 10 μM, no antagonist, 8 experiments) of the same compound?
A: 204.3±4.7 pmol/mg protein/5 min

Q: What about the “AUC of plasma glucose” value [1] of the same compound?
A: inhibited by loperamide but at a higher dosing

Q: And the glucose-insulin index [1]?
A: dose-dependently decreased

Q: And the “total area (AUC) of plasma insulin” value [1]?
A: reduced by loperamide in a dose-dependent manner

Q: What about the “plasma insulin after glucose challenge” value ([1]; 5 min after glucose injection) of the same compound?
A: reduction of plasma insulin by loperamide was obtained in a dose-dependent fashion

Q: And the “plasma glucose after glucose challenge” value ([1]; 35 min after treatment (5 min after 0.5 g/kg glucose i.v.))?
A: lowering of plasma glucose

Q: What about the plasma glucose [2] of the same compound?
A: produced plasma glucose lowering effect

Q: What about the “raise of plasma glucose during IGTT” value ([3]; fructose-fed rats, loperamide 2, 6, 12, 18 μg/kg into abdomen, 60 minutes after injection (30 minutes after 1 g/kg glucose i.p.), vs control group) of the same compound?
A: reduce the raise of plasma glucose significantly

Q: And the “plasma insulin levels and incremental area under the insulin curve during IGTT” value ([3]; fructose-fed rats, loperamide 2-18 μg/kg into abdomen)?
A: lowered

Q: And the “total AUC for the glucose response during IGTT” value ([3]; fructose-fed rats, loperamide 2-18 μg/kg into abdomen, vs vehicle-treated control)?
A: markedly lower than that from vehicle-treated control

Q: What about the “glucose-insulin index during IGTT” value ([3]; fructose-rich chow-fed rats, loperamide 2-18 μg/kg into abdomen, index = product of glucose and insulin AUC) of the same compound?
A: reduced the value of glucose-insulin index

Q: And the “glucose uptake in TNF-α induced insulin resistant C2C12 myoblasts” value ([4]; loperamide 10 μM (maximal concentration))?
A: reversed the glucose uptake in TNF-α induced insulin resistant C2C12 myoblasts to the level near normal control

Q: And the “glucose uptake stimulated by insulin in TNF-α treated C2C12 myoblasts” value ([4]; loperamide incubation 3 days, TNF-α 10 ng/ml 1 hour, dose dependence)?
A: reversed the glucose uptake stimulated by insulin in TNF-α treated C2C12 myoblasts in a dose-dependent manner

Q: What does the source list for `C=CCN1CC[C@]23c4c5ccc(O)c4O[C@H]2/C(=N/N=C2\CC[C@@]4(O)[C@H]6Cc7ccc(O)c8c7[C@@]4(CCN6CC=C)[C@H]2O8)CC[C@@]3(O)[C@H]1C5` [naloxonazine]?
A: effect of antagonist on action of loperamide (10 μM) [4, 5]: inhibited the effect of loperamide in a dose-dependent manner; effect of antagonist on action of loperamide (10 μM) ([4]; antagonist at 1 μM): eliminated the action of loperamide; glucose uptake stimulated by insulin in TNF-α treated C2C12 myoblasts, antagonist alone ([4]; antagonist at 1 μM): did not modify the glucose uptake

Q: With `C=CCN1CC[C@]23c4c5ccc(O)c4O[C@H]2C(=O)CC[C@@]3(O)[C@H]1C5` [naloxone] as the compound, how does the “loperamide (10 μM)-induced 2-DG uptake in the presence of antagonist” value (C2C12 myoblasts; naloxone 0.1 μM, 8 experiments) read?
A: 183.2±4.1 pmol/mg protein/5 min

Q: And the “loperamide (10 μM)-induced 2-DG uptake in the presence of antagonist” value (C2C12 myoblasts; naloxone 1 μM, 8 experiments)?
A: 169.9±5.0 pmol/mg protein/5 min

Q: What about the “action of loperamide to lower glucose-insulin index in the presence of naloxone” value ([3]; naloxone 1 mg/kg 1 hour before loperamide 18 μg/kg, fructose-rich chow-fed rats) of the same compound?
A: reversed to that near to the value in fructose-rich chow-fed rats received vehicle treatment

Q: What about the “glucose-insulin index, naloxone alone” value ([3]; naloxone 1 mg/kg, fructose-rich chow-fed rats) of the same compound?
A: did not modify the value of glucose-insulin index directly

Q: And the “effect of antagonist on action of loperamide (10 μM)” value [4, 5]?
A: inhibited the effect of loperamide in a dose-dependent manner

Q: What about the “effect of antagonist on action of loperamide (10 μM)” value ([4]; antagonist at 1 μM) of the same compound?
A: eliminated the action of loperamide

Q: What about the “glucose uptake stimulated by insulin in TNF-α treated C2C12 myoblasts, antagonist alone” value ([4]; antagonist at 1 μM) of the same compound?
A: did not modify the glucose uptake
